In US5834259A, “Process and composition for preparing D-aspartic acid” (Monsanto Company, priority 1996, dated 1998):

Key:
Type in all cases: biochemical, E. coli K12
[1] = molecular target: T1, L-aspartate-α-decarboxylase (Escherichia coli, UniProt P0A790); assay: Bioconversion of 0.5M D/L-aspartate with NS3291 cells (Example 3)
T1 construct: expressed in transfected cells; host or cells: E. coli W3110 transformed with pIF309 = strain NS3291 (ATCC 98675), whole cells
Description: 66.5 g (0.5M) D/L-aspartate (Sigma, A-9006) was weighed into a 2 L beaker and the pH adjusted to 7.0 with 10N NaOH. The volume was brought to 963 ml with deionized H2 O. 137 ml of cells (NS 3291, described above) were added at a packed cell volume ("PCV") of 7.31 g/10 ml cells resulting in a final volume of 1.1 L. Samples (approximately 1 ml each) were removed over time, centrifuged and the supernatant fluid was analyzed by HPLC for D- and L-aspartic acid content.
In all of the Examples herein, D- and L-aspartic acid isomers were quantified by HPLC using the following precolumn derivatization method. Aspartic acid was converted into diastereomers using ortho-phthalaldehyde and N-acetyl-L-cysteine. Separation of the diastereomers was achieved on a Supelcosil™ LC-18DB, 3μ, 150×4.6 mm column using a mobile phase of A: 20% methanol/80% triethylamine phosphate and B: methanol, and a step gradient as follows: […]
Retention times were 4.19 minutes and 4.54 minutes for D-aspartic acid and L-aspartic acid, respectively.
Samples from bioconversions were centrifuged to remove cells in a microcentrifuge and the supernatant fluid diluted appropriately such that the value determined from the HPLC fell within the linear region of the standard curve. These dilutions were usually between 1:100 and 1:200, made with deionized water.

[2] = molecular target: T1, L-aspartate-α-decarboxylase; assay: Temperature study, 45° C. (Example 9); details: for concentration in supernatant fluid / percent remaining: 1.0M, 100 g/l cells
Description: 133.1 g (1 mol) of D/L-aspartic acid was dissolved in deionized H2 O and the pH was adjusted to 7.0 with 10N NaOH, approximately 100 ml. Cells, freshly thawed from -80° C., were added to achieve a final concentration of 100 g/l. Three 2 L fermentors were each charged with 963 ml of substrate solution and 137 ml of cells and then heated to 37° C. and 45° C. while mixing at 300 rpm or heated to 50° C. while mixing at 450 rpm. Samples, approximately 1 ml, were removed over time and pH adjusted to 7.0 with either NaOH or HCl. After centrifugation to remove cells, the supernatant fluid was analyzed for both D- and L-aspartic acid.

[3] = molecular target: T1, L-aspartate-α-decarboxylase; assay: NH4OH neutralized 1.0M D/L-aspartate substrate (Example 7); details: for concentration in supernatant fluid / percent remaining: 1.0M, NH4OH neutralized, 37° C.
Description: Cells were stored frozen at -80° C. 133.1 g (1 mol) D/L-aspartic acid was dissolved in approximately 600 ml deionized H2 O and adjusted to a pH of about 7 with concentrated NH4 OH. The final volume of substrate was brought to 963 ml to which was added 137 ml cells, freshly thawed. The mixture was placed in the 2 L fermentor and the temperature adjusted to 37° C. No automatic pH control was used, however, the pH was monitored as samples were removed and the pH adjusted with 50% NH4 OH. Samples, approximately 1 ml, were removed periodically, centrifuged, and the supernatant fluid was stored frozen prior to diluting and HPLC analysis.

[4] = molecular target: T1, L-aspartate-α-decarboxylase; assay: Re-use of cells on fresh 0.5M D/L-aspartate (Example 5); details: re-used cells, 37° C.
Description: Cells that had already been used in Example 3 were put in fresh substrate to determine if they were still active.
Fresh D/L-aspartate substrate was prepared as previously described in Example 3. The cells from Example 3 were resuspended in deionized H2 O and made up to 100 ml. The pH of the substrate (900 ml, 0.5M D/L-Asp) was adjusted to 7.0 with NaOH. After placing in the 2 L fermentor, the cells (100 ml) were added. There was no pH control and deionized H2 O was used for substrate. Samples were removed over time, centrifuged and the supernatant fluid diluted appropriately for both D- and L-aspartic acid determination. Temperature was set at 37° C.

T1 sequence (P0A790 25-126): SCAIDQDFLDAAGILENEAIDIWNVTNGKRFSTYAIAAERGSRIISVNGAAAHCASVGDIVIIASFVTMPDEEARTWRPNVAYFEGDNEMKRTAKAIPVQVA
T1 sequence (P0A790 1-24): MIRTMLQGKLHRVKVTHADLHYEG

## N[C@H](CC(=O)O)C(=O)O [D-Asp, D-aspartic acid]
[1]; 5.5000 hr
  percent remaining: 100.07%
[1]; 24.500 hr
  percent remaining: 99.829%
[1]; 26.500 hr
  percent remaining: 94.676%
[1]; 32.500 hr
  percent remaining: 95.870%
[1]; 47.500 hr
  percent remaining: 95.768%
[1]; 52.000 hr
  percent remaining: 96.894%
[1]; 68.000 hr
  percent remaining: 87.099%
[2]
  stability of the isomer: stable
[2]; 0.000 hr
  concentration in supernatant fluid: 55.280 mg/mL
[2]; 2.5000 hr
  concentration in supernatant fluid: 54.820 mg/mL
  percent remaining: 99.168%
[2]; 4.0000 hr
  concentration in supernatant fluid: 53.960 mg/mL
  percent remaining: 97.612%
[2]; 6.0000 hr
  concentration in supernatant fluid: 53.460 mg/mL
  percent remaining: 96.708%
[2]; 8.0000 hr
  concentration in supernatant fluid: 54.040 mg/mL
  percent remaining: 97.757%
[2]; 10.000 hr
  concentration in supernatant fluid: 54.870 mg/mL
  percent remaining: 99.258%
[2]; 12.000 hr
  concentration in supernatant fluid: 54.060 mg/mL
  percent remaining: 97.793%
[2]; 20.000 hr
  concentration in supernatant fluid: 52.360 mg/mL
  percent remaining: 94.718%
[2]; 24.000 hr
  concentration in supernatant fluid: 51.310 mg/mL
  percent remaining: 92.818%
[2]; 29.000 hr
  concentration in supernatant fluid: 53.830 mg/mL
  percent remaining: 97.377%
[2]; 34.000 hr
  concentration in supernatant fluid: 52.880 mg/mL
  percent remaining: 95.658%
[2]; 44.000 hr
  concentration in supernatant fluid: 53.640 mg/mL
  percent remaining: 97.033%
[2]; 48.000 hr
  concentration in supernatant fluid: 52.730 mg/mL
  percent remaining: 95.387%
[2]; 68.000 hr
  concentration in supernatant fluid: 53.560 mg/mL
  percent remaining: 96.889%
[2]; 92.000 hr
  concentration in supernatant fluid: 53.560 mg/mL
  percent remaining: 96.889%
[3]; 0.0000 hr
  concentration in supernatant fluid: 55.260 mg/mL
[3]; 3.0000 hr
  concentration in supernatant fluid: 54.670 mg/mL
  percent remaining: 98.932%
[3]; 6.0000 hr
  concentration in supernatant fluid: 49.100 mg/mL
  percent remaining: 88.853%
[3]; 9.0000 hr
  concentration in supernatant fluid: 47.810 mg/mL
  percent remaining: 86.518%
[3]; 19.000 hr
  concentration in supernatant fluid: 43.490 mg/mL
  percent remaining: 78.701%
[3]; 23.500 hr
  concentration in supernatant fluid: 39.120 mg/mL
  percent remaining: 70.793%
[3]; 28.000 hr
  concentration in supernatant fluid: 36.290 mg/mL
  percent remaining: 65.671%
[3]; 32.500 hr
  concentration in supernatant fluid: 33.540 mg/mL
  percent remaining: 60.695%
[3]; 43.000 hr
  concentration in supernatant fluid: 30.370 mg/mL
  percent remaining: 54.958%
[3]; 49.000 hr
  concentration in supernatant fluid: 21.580 mg/mL
  percent remaining: 39.052%
[4]; 0.0000 hr
  concentration in supernatant fluid: 30.850 mg/mL
[4]; 6.2500 hr
  concentration in supernatant fluid: 30.820 mg/mL
  percent remaining: 99.903%
[4]; 15.250 hr
  concentration in supernatant fluid: 29.870 mg/mL
  percent remaining: 96.823%
[4]; 25.750 hr
  concentration in supernatant fluid: 28.250 mg/mL
  percent remaining: 91.572%
[4]; 28.000 hr
  concentration in supernatant fluid: 27.980 mg/mL
  percent remaining: 90.697%
[4]; 44.250 hr
  concentration in supernatant fluid: 25.000 mg/mL
  percent remaining: 81.037%
[4]; 63.500 hr
  concentration in supernatant fluid: 21.760 mg/mL
  percent remaining: 70.535%
[4]; 65.000 hr
  concentration in supernatant fluid: 20.340 mg/mL
  percent remaining: 65.932%

## N[C@@H](CC(=O)O)C(=O)O [L-Asp, L-aspartic acid]
[1]; 5.5000 hr
  percent remaining: 41.739%
[1]; 24.500 hr
  percent remaining: 0.5888%
[1]; 26.500 hr
  percent remaining: 0.4157%
[1]; 32.500 hr
  percent remaining: 0.2078%
[1]; 47.500 hr
  percent remaining: 0.1039%
[1]; 52.000 hr
  percent remaining: 0.06928%
[1]; 68.000 hr
  percent remaining: 1.4894%
[2]; 0.000 hr
  concentration in supernatant fluid: 54.410 mg/mL
[2]; 2.5000 hr
  percent remaining: 92.079%
[2]; 4.0000 hr
  concentration in supernatant fluid: 47.110 mg/mL
  percent remaining: 86.583%
[2]; 6.0000 hr
  concentration in supernatant fluid: 43.130 mg/mL
  percent remaining: 79.269%
[2]; 8.0000 hr
  concentration in supernatant fluid: 39.310 mg/mL
  percent remaining: 72.248%
[2]; 10.000 hr
  concentration in supernatant fluid: 36.800 mg/mL
  percent remaining: 67.635%
[2]; 12.000 hr
  concentration in supernatant fluid: 34.540 mg/mL
  percent remaining: 63.481%
[2]; 20.000 hr
  concentration in supernatant fluid: 24.690 mg/mL
  percent remaining: 45.378%
[2]; 24.000 hr
  concentration in supernatant fluid: 23.210 mg/mL
  percent remaining: 42.658%
[2]; 29.000 hr
  concentration in supernatant fluid: 21.700 mg/mL
  percent remaining: 39.882%
[2]; 34.000 hr
  concentration in supernatant fluid: 19.310 mg/mL
  percent remaining: 35.490%
[2]; 44.000 hr
  concentration in supernatant fluid: 15.800 mg/mL
  percent remaining: 29.039%
[2]; 48.000 hr
  concentration in supernatant fluid: 16.700 mg/mL
  percent remaining: 30.822%
[2]; 68.000 hr
  concentration in supernatant fluid: 16.050 mg/mL
  percent remaining: 29.498%
[2]; 92.000 hr
  concentration in supernatant fluid: 13.370 mg/mL
  percent remaining: 24.573%
[3]; 0.0000 hr
  concentration in supernatant fluid: 55.740 mg/mL
[3]; 3.0000 hr
  concentration in supernatant fluid: 53.380 mg/mL
  percent remaining: 95.766%
[3]; 6.0000 hr
  concentration in supernatant fluid: 56.370 mg/mL
  percent remaining: 101.13%
[3]; 9.0000 hr
  concentration in supernatant fluid: 56.680 mg/mL
  percent remaining: 101.69%
[3]; 19.000 hr
  concentration in supernatant fluid: 59.270 mg/mL
  percent remaining: 106.33%
[3]; 23.500 hr
  concentration in supernatant fluid: 54.930 mg/mL
  percent remaining: 98.547%
[3]; 28.000 hr
  concentration in supernatant fluid: 52.620 mg/mL
  percent remaining: 94.403%
[3]; 32.500 hr
  concentration in supernatant fluid: 50.900 mg/mL
  percent remaining: 91.317%
[3]; 43.000 hr
  concentration in supernatant fluid: 53.520 mg/mL
  percent remaining: 96.017%
[3]; 49.000 hr
  percent remaining: 91.676%
[3]; NH4+ salt as compared to the Na+ salt
  rate of L-Asp utilization: slower
[4]; 0.0000 hr
  concentration in supernatant fluid: 24.700 mg/mL
[4]; 6.2500 hr
  concentration in supernatant fluid: 17.130 mg/mL
  percent remaining: 69.352%
[4]; 15.250 hr
  concentration in supernatant fluid: 15.620 mg/mL
  percent remaining: 63.239%
[4]; 25.750 hr
  concentration in supernatant fluid: 10.870 mg/mL
  percent remaining: 44.008%
[4]; 28.000 hr
  concentration in supernatant fluid: 9.5300 mg/mL
  percent remaining: 38.583%
[4]; 44.250 hr
  concentration in supernatant fluid: 4.4200 mg/mL
  percent remaining: 17.895%
[4]; 63.500 hr
  concentration in supernatant fluid: 0.98 mg/mL
  percent remaining: 3.9676%
[4]; 65.000 hr
  concentration in supernatant fluid: 0.95 mg/mL
  percent remaining: 3.8462%
